Legend:
[1] = system: NET; details: rat brain synaptosomes; ref Gannon et al., 2018; cited from earlier work
[2] = target: A117S/D121G/P323V dDAT (triple dDAT mutant) (Drosophila melanogaster, UniProt Q7K4Y6, A117S/D121G/P323V); assay: MAT-Ca2+ assay: inhibition of DA-induced Ca2+ signals; type: cell-based
[3] = target: wt hDAT (Homo sapiens, UniProt Q01959); assay: as above; type: cell-based; details: DA 10 μM; for pIC50 ± SEM: ~35°C, Table 2
[4] = target: A117S/D121G/P323V/F318C dDAT (quadruple dDAT mutant) (Drosophila melanogaster, UniProt Q7K4Y6, A117S/D121G/F318C/P323V); assay: as above; type: cell-based
[5] = target: wt dDAT (Drosophila melanogaster, UniProt Q7K4Y6); assay: as above; type: cell-based; details: DA 10 μM; for pIC50 ± SEM: bottom of fit constrained to zero for MDPV
[6] = target: P323V dDAT mutant (Drosophila melanogaster, UniProt Q7K4Y6, P323V); assay: as above; type: cell-based
[7] = target: D121G dDAT mutant (Drosophila melanogaster, UniProt Q7K4Y6, D121G); assay: as above; type: cell-based
[8] = system: human dopamine transporter (hDAT); details: ref Baumann et al., 2013; Cameron et al., 2013b; Steele and Eltit, 2019; cited from earlier work
[9] = target: A117S dDAT mutant (Drosophila melanogaster, UniProt Q7K4Y6, A117S); assay: MAT-Ca2+ assay: inhibition of DA-induced Ca2+ signals; type: cell-based
[10] = target: A117S/D121G dDAT mutant (Drosophila melanogaster, UniProt Q7K4Y6, A117S/D121G); assay: as above; type: cell-based
[11] = target: F318C dDAT mutant (Drosophila melanogaster, UniProt Q7K4Y6, F318C); assay: as above; type: cell-based
[12] = system: hDAT; details: same technique, ref Steele and Eltit, 2019; cited from earlier work
[13] = Table 2 dataset, with DA pre-pulse
[14] = Table 1 dataset, without DA pre-pulse

| SMILES | weaker inhibiting uptake at NET than at DAT [1] | IC50 [2, 13] [nM] | pIC50 ± SEM [2, 13] [M] | IC50 [3] [nM] | pIC50 ± SEM [3] [M] | IC50 [4, 13] [nM] | pIC50 ± SEM [4, 13] [M] | IC50 [5] [µM] | pIC50 ± SEM [5] | IC50 ([2]; Table 2 dataset) [nM] | also measured |
| --- | --- | --- | --- | --- | --- | --- | --- | --- | --- | --- | --- |
| CC(C(=O)c1ccc2c(c1)OCO2)N1CCCC1 (stereo not drawn) [MDPPP, 3,4-methylenedioxy-α-pyrrolidinopropiophenone] | ~ 5 fold | 16000 | 4.80 ± 0.02 | 3420 | 5.47 ± 0.02 | 13000 | 4.89 ± 0.01 | > 30 | Inactive |  |  |
| CCCC(C(=O)c1ccccc1)N1CCCC1 (stereo not drawn) [α-PVP, α-pyrrolidinovalerophenone] | equipotent | 1530 | 5.82 ± 0.03 | 51 | 7.29 ± 0.01 | 1090 | 5.96 ± 0.03 | 20.7 | 4.68 ± 0.03 M | 1530 | IC50 ([4]; Table 2 dataset): 1090 nM |
| CCCC(C(=O)c1ccc2c(c1)OCO2)N1CCCC1 (stereo not drawn) [MDPV, 3,4-Methylenedioxypyrovalerone] | ~ 4 fold | 1210 | 5.92 ± 0.02 | 34 | 7.47 ± 0.01 | 251 | 6.60 ± 0.04 | 27.4 | 4.56 ± 0.02 M | 1210 | IC50 ([6]; P323V dDAT): 9.69 µM; pIC50 ± SEM ([6]; P323V dDAT): 5.01 ± 0.03 M; improvement in potency vs wt dDAT ([6]; P323V dDAT vs wt dDAT): ~ 3 fold; IC50 [7]: 4.65 µM; pIC50 ± SEM [7]: 5.33 ± 0.04 M; more potent than cocaine in blocking DA uptake through DAT [8]: ~ 50 fold; IC50 ([2]; Table 1 dataset): 1180 nM; IC50 [2, 14]: 1180 nM; pIC50 ± SEM [2, 14]: 5.93 ± 0.02 M; IC50 ([9]; A117S dDAT): 8.39 µM; pIC50 ± SEM ([9]; A117S dDAT): 5.08 ± 0.04 M; improvement in potency vs wt dDAT ([9]; A117S dDAT vs wt dDAT): ~ 3 fold; IC50 [10]: 2210 nM; pIC50 ± SEM [10]: 5.66 ± 0.04 M; IC50 ([4]; Table 1 dataset): 250 nM; IC50 [4, 14]: 253 nM; pIC50 ± SEM [4, 14]: 6.60 ± 0.03 M; IC50 ([11]; F318C dDAT): 8.24 µM; pIC50 ± SEM ([11]; F318C dDAT): 5.08 ± 0.02 M; improvement in potency vs wt dDAT ([11]; F318C dDAT vs wt dDAT): ~ 3 fold |
| NCCc1ccc(O)c(O)c1 [DA, dopamine] |  |  |  |  |  |  |  |  |  |  | pEC50 of DA to produce Ca2+ signals [12]: 5.89 ± 0.04 |
